For 15 compounds, Ki results are on record in ChEMBL document CHEMBL1121959, “Probes of the active site of norepinephrine N-methyltransferase: effect of hydrophobic and hydrophilic interactions on side-chain binding of amphetamine and alpha-methylbenzylamine” (J Med Chem, 1982).

The target of this assay is T1, Phenylethanolamine N-methyltransferase (Bos taurus, UniProt P10938).
T1 sequence (P10938 whole entry): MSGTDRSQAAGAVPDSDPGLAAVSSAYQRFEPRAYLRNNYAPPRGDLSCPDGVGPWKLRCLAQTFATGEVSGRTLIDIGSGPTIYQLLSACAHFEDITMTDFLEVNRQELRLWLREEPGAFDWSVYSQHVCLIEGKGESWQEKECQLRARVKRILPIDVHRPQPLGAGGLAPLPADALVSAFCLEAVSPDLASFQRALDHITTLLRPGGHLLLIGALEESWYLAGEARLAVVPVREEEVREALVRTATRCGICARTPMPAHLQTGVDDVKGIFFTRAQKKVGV
The assay can be described thus: Inhibitory activity against bovine adrenal norepinephrine N-methyl-transferase was determined.
Turning to `C[C@H](N)Cc1ccccc1` [DEXTROAMPHETAMINE], the Ki is 442 µM.
In the case of `N[C@@H](CO)Cc1ccccc1` it was 379 µM.
In the case of `N[C@H](CO)CC1CCCCC1` it was 125 µM; in that of `CCCC(N)c1ccccc1` (stereo not given), > 1000 µM.
The compound `N[C@H](CO)Cc1ccccc1` [L-PHENYLALANINOL] showed an inhibition constant Ki of 664 µM.
In the case of `NC(CO)c1ccccc1` (racemic) it was 1220 µM; in that of `CCC(N)Cc1ccccc1` (stereo not given), > 1000 µM.
For `C[C@@H](N)Cc1ccccc1` [LEVAMFETAMINE], the Ki is 1380 µM.
Next, `NC(CO)CC1CCCCC1` (racemic): 47 µM; `NC(Cc1ccccc1)Cc1ccccc1`: > 1000 µM; `NC(CO)Cc1ccccc1` (racemic): 385 µM.
With `CCCC(N)Cc1ccccc1` (stereo not given), the Ki was > 1000 µM.
`N[C@@H](CO)c1ccccc1` yielded a Ki of 88 µM.
Regarding `NC(CC1CCCCC1)c1ccccc1` (stereo not given), the Ki was > 1000 µM.
Regarding `N[C@@H](CO)CC1CCCCC1`, the affinity corresponds to a Ki of 33 µM.
